Results as given in patent US20230278983A1, “INDOLE DERIVATIVES AND USES THEREOF FOR TREATING A CANCER” (Universite Claude Bernard Lyon 1, priority 2020, published 2023).
Like-named read-outs stand apart in the source and are kept apart here.

Molecular target: CK2 (Homo sapiens (Human), UniProt P68400)
Experiment: Radiometric CK2 kinase assay
Type: biochemical
Details: for inhibition at 0.1 µM: compound at 0.10 μM; for inhibition at 1 µM: compound at 1 μM; for inhibition at 0.05 µM: compound at 0.05 μM
[1] = inhibition of CK2 activity, ATP 10 μM

Chain of CK2 (P68400 whole entry): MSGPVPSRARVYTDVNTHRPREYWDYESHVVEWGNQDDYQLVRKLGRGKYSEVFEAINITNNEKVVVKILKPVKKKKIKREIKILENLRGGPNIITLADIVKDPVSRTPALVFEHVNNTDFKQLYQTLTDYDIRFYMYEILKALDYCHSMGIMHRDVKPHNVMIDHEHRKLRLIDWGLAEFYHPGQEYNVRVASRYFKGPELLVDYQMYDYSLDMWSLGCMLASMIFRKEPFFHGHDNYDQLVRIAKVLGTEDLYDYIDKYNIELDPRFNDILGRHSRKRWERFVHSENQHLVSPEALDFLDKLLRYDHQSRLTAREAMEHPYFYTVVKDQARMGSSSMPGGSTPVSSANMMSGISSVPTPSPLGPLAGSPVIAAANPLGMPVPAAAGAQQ

Question: With `CC(=O)c1[nH]c2ccc(F)cc2c1-c1cn(CC2CCN(CCNS(=O)(=O)c3ccc(-c4ccc(F)cc4Cl)cc3)CC2)nn1` [AB1453, N-(2-(4-((4-(2-acetyl-5-fluoro-1H-indol-3-yl)-1H-1,2,3-triazol-1-yl)methyl)piperidin-1-yl)ethyl)-2′-chloro-4′-fluoro-[1,1′-biphenyl]-4-sulfonamide] as the compound, how does the inhibition at 0.1 µM (ATP 10 μM) read?
Answer: 40%

Question: For `CC(=O)c1cccc(Oc2ccc(CN3CCC(Cn4cc(-c5c(C(=O)OCC(C)C)[nH]c6ccc(F)cc56)nn4)CC3)cc2C(C)C)c1` [AB718, Isobutyl 3-(1-((1-(4-(3-acetylphenoxy)-3-isopropylbenzyl)piperidin-4-yl)methyl)-1H-1,2,3-triazol-4-yl)-5-fluoro-1H-indole-2-carboxylate], which inhibition at 1 µM (ATP 10 μM) is on record?
Answer: 5%

Question: For `CCOC(=O)c1[nH]c2ccc(Cl)cc2c1-c1cn(CC2CCN(CCNS(=O)(=O)c3ccc4ccccc4c3)CC2)nn1` [AB551, Ethyl 5-chloro-3-(1-((1-(2-(naphthalene-2-sulfonamido)ethyl)piperidin-4-yl)methyl)-111-1,2,3-triazol-4-yl)-1H-indole-2-carboxylate], which IC50 is on record?
Answer: 1780 nM

Question: How did the inhibition at 0.1 µM (ATP 10 μM) turn out when `CC(=O)c1[nH]c2ccc(F)cc2c1-c1cn(C2CCN(CCNS(=O)(=O)c3ccc(CC(C)C)cc3)CC2)nn1` [AB1321, N-(2-(4-(4-(2-acetyl-5-fluoro-1H-indol-3-yl)-1H-1,2,3-triazol-1-yl)piperidin-1-yl)ethyl)-4-isobutylbenzenesulfonamide] was run?
Answer: 4%

Question: Which inhibition at 1 µM (ATP 10 μM) does the source give for `CC(C)COC(=O)c1[nH]c2ccc(F)cc2c1-c1cn(CC2CCN(Cc3ccc(Oc4ccccc4)c(C(C)C)c3)CC2)nn1` [AB697, Isobutyl 5-fluoro-3-(1-((1-(3-isopropyl-4-phenoxybenzyl)piperidin-4-yl)methyl)-1H-1,2,3-triazol-4-yl)-1H-indole-2-carboxylate] here?
Answer: 16%

Question: For `O=C(c1[nH]c2ccc(F)cc2c1-c1cn(CC2CCN(CCNS(=O)(=O)Cc3ccc(C(F)(F)F)cc3)CC2)nn1)C1CC1` [AB1305, N-(2-(4-((4-(2-(cyclopropanecarbonyl)-5-fluoro-1H-indol-3-yl)-1H-1,2,3-triazol-1-yl)methyl)piperidin-1-yl)ethyl)-1-(4-(trifluoromethyl)phenyl)methanesulfonamide], which IC50 [1] is on record?
Answer: 480 nM

Question: With `COc1ccccc1-c1ccc(CN2CCC(Cn3cc(-c4c(C(=O)OCC(C)C)[nH]c5ccc(F)cc45)nn3)CC2)cc1Cl` [AB689, Isobutyl 3-(1-((1-((2-chloro-2′-methoxy-[1,1′-biphenyl]-4-yl)methyl)piperidin-4-yl)methyl)-1H-1,2,3-triazol-4-yl)-5-fluoro-1H-indole-2-carboxylate] as the compound, how does the inhibition at 1 µM (ATP 10 μM) read?
Answer: 6%

Question: Which inhibition at 0.05 µM (ATP 10 μM) does the source give for `CC(C)COC(=O)c1[nH]c2ccc(F)cc2c1-c1cn(CC2CCN(CCNS(=O)(=O)c3ccc(-c4cccnc4F)cc3)CC2)nn1` [AB1207, isobutyl 5-fluoro-3-(1-((1-(2-((4-(2-fluoropyridin-3-yl)phenyl)sulfonamido)ethyl)piperidin-4-yl)methyl)-1H-1,2,3-triazol-4-yl)-1H-indole-2-carboxylate] here?
Answer: 61%

Question: With `CC(=O)c1[nH]c2ccc(F)cc2c1-c1cn(CC2CCN(CCNS(=O)(=O)c3ccc(CC(C)C)cc3)CC2)nn1` [AB1135, N-(2-(4-((4-(2-acetyl-5-fluoro-1H-indol-3-yl)-1H-1,2,3-triazol-1-yl)methyl)piperidin-1-yl)ethyl)-4-isobutylbenzenesulfonamide] as the compound, how does the IC50 read?
Answer: 48 nM

Question: With `CC(C)COC(=O)c1[nH]c2ccc(F)cc2c1-c1cn(CC2CCN(CCNS(=O)(=O)c3ccc(C4=CCOCC4)cc3)CC2)nn1` [AB1074, isobutyl 3-(1-((1-(2-((4-(3,6-dihydro-2H-pyran-4-yl)phenyl)sulfonamido)ethyl)piperidin-4-yl)methyl)-1H-1,2,3-triazol-4-yl)-5-fluoro-1H-indole-2-carboxylate] as the compound, how does the IC50 read?
Answer: 69 nM

Question: With `CC(C)COC(=O)c1[nH]c2ccc(F)cc2c1-c1cn(CC2CCN(CCNS(=O)(=O)Cc3cccc(Br)c3)CC2)nn1` [AB1031, isobutyl 3-(1-((1-(2-(((3-bromophenyl)methyl)sulfonamido)ethyl)piperidin-4-yl)methyl)-1H-1,2,3-triazol-4-yl)-5-fluoro-1H-indole-2-carboxylate] as the compound, how does the IC50 [1] read?
Answer: 150 nM

Question: For `CC(C)COC(=O)c1[nH]c2ccc(F)cc2c1-c1cn(CC2CCN(CCNS(=O)(=O)c3ccc(C(C)(C)C)cc3)CC2)nn1` [AB934, isobutyl 3-(1-((1-(2-((4-(tert-butyl)phenyl)sulfonamido)ethyl)piperidin-4-yl)methyl)-1H-1,2,3-triazol-4-yl)-5-fluoro-1H-indole-2-carboxylate], which IC50 is on record?
Answer: 52 nM

Question: `CC(C)COC(=O)c1[nH]c2ccc(F)cc2c1-c1cn(CC2CCN(CCNS(=O)(=O)Cc3cccc(Cl)c3)CC2)nn1` [AB937, isobutyl 3-(1-((1-(2-(((3-chlorophenyl)methyl)sulfonamido)ethyl)piperidin-4-yl)methyl)-1H-1,2,3-triazol-4-yl)-5-fluoro-1H-indole-2-carboxylate] was tested. Which IC50 [1] did it give?
Answer: 800 nM

Question: For `COc1ccccc1-c1ccc(S(=O)(=O)NCCN2CCC(Cn3cc(-c4c(C(=O)OCC(C)C)[nH]c5ccc(F)cc45)nn3)CC2)cc1` [AB1205, isobutyl 5-fluoro-3-(1-((1-(2-((2′-methoxy-[1,1′-biphenyl])-4-sulfonamido)ethyl)piperidin-4-yl)methyl)-1H-1,2,3-triazol-4-yl)-1H-indole-2-carboxylate], which inhibition at 0.05 µM (ATP 10 μM) is on record?
Answer: 59%

Question: With `CC(C)COC(=O)c1[nH]c2ccc(F)cc2c1-c1cn(CC2CCN(S(=O)(=O)N3CCN(Cc4ccccc4)CC3)CC2)nn1` [AB755] as the compound, how does the inhibition at 1 µM (ATP 10 μM) read?
Answer: 56%

Question: How did the IC50 turn out when `COc1cccc(OC)c1-c1ccc(S(=O)(=O)NCCN2CCC(Cn3cc(-c4c(C(=O)OCC(C)C)[nH]c5ccc(F)cc45)nn3)CC2)cc1` [AB1206, isobutyl 3-(1-((1-(2-((2′,6′-dimethoxy-[1,1′-biphenyl])-4-sulfonamido)ethyl)piperidin-4-yl)methyl)-1H-1,2,3-triazol-4-yl)-5-fluoro-1H-indole-2-carboxylate] was run?
Answer: 16 nM

Question: With `CC(C)COC(=O)c1[nH]c2ccc(F)cc2c1-c1cn(CC2CCN(CCNS(=O)(=O)N3CCC(Cc4ccccc4)CC3)CC2)nn1` [AB918, isobutyl 3-(1-((1-(2-((4-benzylpiperidine)-1-sulfonamido)ethyl)piperidin-4-yl)methyl)-1H-1,2,3-triazol-4-yl)-5-fluoro-1H-indole-2-carboxylate] as the compound, how does the IC50 [1] read?
Answer: 400 nM

Question: With `CC(C)Cc1ccc(S(=O)(=O)NCCN2CCC(Cn3cc(-c4c(CO)[nH]c5ccc(F)cc45)nn3)CC2)cc1` [AB1405, N-(2-(4-((4-(5-fluoro-2-(hydroxymethyl)-1H-indol-3-yl)-1H-1,2,3-triazol-1-yl)methyl)piperidin-1-yl)ethyl)-4-isobutylbenzenesulfonamide] as the compound, how does the inhibition at 0.1 µM (ATP 10 μM) read?
Answer: 11%

Question: With `CC(C)COC(=O)c1[nH]c2ccc(F)cc2c1-c1cn(CC2CCN(CCNS(=O)(=O)c3ccc(-c4cccnc4Cl)cc3)CC2)nn1` [AB1133, isobutyl 3-(1-((1-(2-((4-(2-chloropyridin-3-yl)phenyl)sulfonamido)ethyl)piperidin-4-yl)methyl)-1H-1,2,3-triazol-4-yl)-5-fluoro-1H-indole-2-carboxylate] as the compound, how does the IC50 read?
Answer: 26 nM

Question: For `CC(C)Cc1ccc(S(=O)(=O)NCCN2CCC(Cn3cc(-c4c(C=O)[nH]c5ccc(F)cc45)nn3)CC2)cc1` [AB1235, N-(2-(4-((4-(5-fluoro-2-formyl-1H-indol-3-yl)-1H-1,2,3-triazol-1-yl)methyl)piperidin-1-yl)ethyl)-4-isobutylbenzenesulfonamide], which IC50 [1] is on record?
Answer: 90 nM

Question: How did the IC50 turn out when `CCOC(=O)c1[nH]c2ccc(Cl)cc2c1-c1cn(CC2CCN(CCNS(=O)(=O)c3ccc(C(F)(F)F)cc3)CC2)nn1` [AB550, Ethyl 5-chloro-3-(1-((1-(2-((4-(trifluoromethyl)phenyl)sulfonamido)ethyl)piperidin-4-yl)methyl)-1H-1,2,3-triazol-4-yl)-1H-indole-2-carboxylate] was run?
Answer: 2240 nM

Question: For `CC(=O)c1[nH]c2ccc(F)cc2c1-c1cn(C[C@@H]2CCN(CCNS(=O)(=O)c3ccc(CC(C)C)cc3)C2)nn1` [AB1319], which inhibition at 0.1 µM (ATP 10 μM) is on record?
Answer: 33%

Question: For `CC(C)COC(=O)c1[nH]c2ccc(F)cc2c1-c1cn(CC2CCN(Cc3ccc(Oc4ccc5c(c4)CCO5)c(C(C)C)c3)CC2)nn1` [AB717, Isobutyl 3-(1-((1-(4-((2,3-dihydrobenzofuran-5-yl)oxy)-3-isopropylbenzyl)piperidin-4-yl)methyl)-1H-1,2,3-triazol-4-yl)-5-fluoro-1H-indole-2-carboxylate], which inhibition at 1 µM (ATP 10 μM) is on record?
Answer: 2%

Question: How did the IC50 turn out when `CCOC(=O)c1[nH]c2cc(Cl)ccc2c1-c1cn(CC2CCN(CCNS(=O)(=O)c3ccc(Cl)cc3)CC2)nn1` [AB433, Ethyl 6-chloro-3-(1-((1-(2-((4-chlorophenyl)sulfonamido)ethyl)piperidin-4-yl)methyl)-1H-1,2,3-triazol-4-yl)-1H-indole-2-carboxylate] was run?
Answer: 8100 nM

Question: For `CC(C)COC(=O)c1[nH]c2ccc(F)cc2c1-c1cn(CC2CCN(CCNS(=O)(=O)Cc3ccc(C(F)(F)F)cc3)CC2)nn1` [AB935, isobutyl 5-fluoro-3-(1-((1-(2-(((4-(trifluoromethyl)phenyl)methyl)sulfonamido)ethyl)piperidin-4-yl)methyl)-1H-1,2,3-triazol-4-yl)-1H-indole-2-carboxylate], which IC50 [1] is on record?
Answer: 49 nM

Question: `CCc1ccc(S(=O)(=O)NCCN2CCC(Cn3cc(-c4c(C(=O)NCC(C)C)[nH]c5ccc(F)cc45)nn3)CC2)cc1` [AB651, 3-(1-((1-(2-((4-Ethylphenyl)sulfonamido)ethyl)piperidin-4-yl)methyl)-111-1,2,3-triazol-4-yl)-5-fluoro-N-isobutyl-1H-indole-2-carboxamide] was tested. Which inhibition at 1 µM (ATP 10 μM) did it give?
Answer: 5%

Question: How did the IC50 [1] turn out when `Cc1ccc(CS(=O)(=O)NCCN2CCC(Cn3cc(-c4c(C(=O)OCC(C)C)[nH]c5ccc(F)cc45)nn3)CC2)cc1` [AB1210, isobutyl 5-fluoro-3-(1-((1-(2-((p-tolylmethyl)sulfonamido)ethyl)piperidin-4-yl)methyl)-1H-1,2,3-triazol-4-yl)-1H-indole-2-carboxylate] was run?
Answer: 85 nM

Question: With `COc1cccc(OC)c1-c1ccc(S(=O)(=O)NCCN2CCC(Cn3cc(-c4c(C(C)=O)[nH]c5ccc(F)cc45)nn3)CC2)cc1F` [AB1454, N-(2-(4-((4-(2-acetyl-5-fluoro-1H-indol-3-yl)-1H-1,2,3-triazol-1-yl)methyl)piperidin-1-yl)ethyl)-2-fluoro-2′,6′-dimethoxy-[1,1′-biphenyl]-4-sulfonamide] as the compound, how does the IC50 read?
Answer: 11 nM
